Reference: article PMC6744390 (Drug Metabolism and Disposition, 2019)

Experiments:
[1] = test system: plasma proteins; test: Plasma protein binding by high-throughput equilibrium dialysis; assay type: in vitro ADME, dog; settings: Mann–Whitney U test, n = 6 per group
[2] = as above; assay type: in vitro ADME, dog; settings: both, dog, plasma

Row | SMILES | difference in plasma protein binding between H1 and H2 allele plasma [1] | fraction unbound at 4 h, 4 µM [2]
1 | COc1c(C)c2c(c(O)c1C/C=C(\C)CCC(=O)O)C(=O)OC2 [mycophenolic acid] | No significant difference | –
2 | Cc1ccc(-c2cc(C(F)(F)F)nn2-c2ccc(S(N)(=O)=O)cc2)cc1 [celecoxib] | No significant difference | < 0.02
